From PubChem BioAssay AID330 (DTP/NCI, 2004) come the findings set out here.

This test concerns P388 leukemia ip, CD2F1 mice, survival T/C. Kind of test: NCI In Vivo Anticancer Drug Screen. Data for tumor model P388 Leukemia (intraperitoneal) in CD2F1 (CDF1) mice. Particulars: endpoint: median survival time, higher = longer survival. The essentials:
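Mice carrying the transplanted tumor received test compound or vehicle. Survival was recorded in each group, and the value is the treated-group measurement divided by that of the vehicle-treated control group.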

Where [1] appears, read: dose: 12.5 mg/kg/injection, schedule: Q01DX009 (ip), vehicle: saline with Tween-80.
Setting [2] is: dose: 50.0 mg/kg/injection, schedule: Q01DX009 (ip), vehicle: saline.
[3] abbreviates: dose: 100.0 mg/kg/injection, schedule: Q01DX009 (ip), vehicle: saline.
Where [4] appears, read: dose: 25.0 mg/kg/injection, schedule: Q01DX009 (ip), vehicle: saline with Tween-80.
[5] abbreviates: dose: 50.0 mg/kg/injection, schedule: Q01DX009 (ip), vehicle: saline with Tween-80.
The mark [6] stands for this setting: dose: 100.0 mg/kg/injection, schedule: Q01DX009 (ip), vehicle: saline with Tween-80.
[7] abbreviates: dose: 25.0 mg/kg/injection, schedule: Q01DX009 (ip), vehicle: saline.

Each structure is given as a SMILES string. Values joined by “and” are separate entries in the source; they are usually repeats but may differ in a detail not shown here. Equal entries are not always repeated. Toxic doses and inconclusive results are not listed.

On to `O=[N+]([O-])c1cc([N+](=O)[O-])c(Cl)s1`, for which the T/C is 104 % of control (dose: 6.25 mg/kg/injection, schedule: Q01DX009 (ip), vehicle: saline with Tween-80) and 100 % of control under setting [1].
`C[CH](C)[GeH]([CH](C)C)[CH](C)C`: the T/C is 91 % of control under setting [2] and 91 % of control under setting [3].
As to `Oc1ccc(N=Cc2ccccn2)cc1`, the T/C under setting [4] was 94 % of control; the T/C under setting [5] was 105 % of control and 88 % of control; the T/C under setting [6] was 107 % of control and 88 % of control; the T/C (dose: 200.0 mg/kg/injection, schedule: Q01DX009 (ip), vehicle: saline with Tween-80) is 103 % of control.
Regarding `Cc1onc(-c2ccccc2)c1C(=O)OCCOc1ccc(C(F)(F)F)cc1[N+](=O)[O-]`, the T/C (dose: 60.0 mg/kg/injection, schedule: Q01DX005 (ip), vehicle: saline with Tween-80) was 99 % of control; the T/C (dose: 120.0 mg/kg/injection, schedule: Q01DX005 (ip), vehicle: saline with Tween-80) was 90 % of control; the T/C (dose: 240.0 mg/kg/injection, schedule: Q01DX005 (ip), vehicle: saline with Tween-80) is 90 % of control.
For `O=[N+]([O-])c1cnc(/C=[N+](\[O-])CCO)n1CCO`, the T/C under setting [2] was 99 % of control; the T/C under setting [3] is 90 % of control; the T/C (dose: 200.0 mg/kg/injection, schedule: Q01DX009 (ip), vehicle: saline) was 106 % of control.
For `CCOC1=C(C#N)C(=O)NC2OC(CO)C(O)C2O1` (stereo unspecified), the T/C runs as follows: (dose: 60.0 mg/kg/injection, schedule: Q01DX005 (ip), vehicle: Klucel (hydroxypropylcellulose) (HPC)) 104 % of control; (dose: 120.0 mg/kg/injection, schedule: Q01DX005 (ip), vehicle: Klucel (hydroxypropylcellulose) (HPC)) 104 % of control; (dose: 240.0 mg/kg/injection, schedule: Q01DX005 (ip), vehicle: Klucel (hydroxypropylcellulose) (HPC)) 106 % of control.
For `C[n+]1c(-c2cccc(-c3ccccc3)c2)c2cc([N+](=O)[O-])ccc2c2ccccc21`, the T/C runs as follows: (dose: 1.56 mg/kg/injection, schedule: Q01DX009 (ip), vehicle: Klucel (hydroxypropylcellulose) (HPC)) 103 % of control; (dose: 3.13 mg/kg/injection, schedule: Q01DX009 (ip), vehicle: Klucel (hydroxypropylcellulose) (HPC)) 103 % of control; (dose: 6.25 mg/kg/injection, schedule: Q01DX009 (ip), vehicle: Klucel (hydroxypropylcellulose) (HPC)) 106 % of control; (dose: 12.5 mg/kg/injection, schedule: Q01DX009 (ip), vehicle: Klucel (hydroxypropylcellulose) (HPC)) 111 % of control; (dose: 25.0 mg/kg/injection, schedule: Q01DX009 (ip), vehicle: Klucel (hydroxypropylcellulose) (HPC)) 109 % of control.
As for `CN(C)C(=O)NC1(N(C)C)CC1`, the T/C under setting [7] is 104 % of control, the T/C under setting [2] is 100 % of control and the T/C under setting [3] is 97 % of control.
For `CCCCCCCCCCCCCCCCCCCCCCCCC(O)C(=O)NC(CO)C(O)C(O)CCCCCCCCCCCCCC` (stereo unspecified), the T/C reads like this: (dose: 1.56 mg/kg/injection, schedule: Q04DX003 (ip), vehicle: saline with Tween-80) 91 % of control; (dose: 3.13 mg/kg/injection, schedule: Q04DX003 (ip), vehicle: saline with Tween-80) 100 % of control; (dose: 6.25 mg/kg/injection, schedule: Q04DX003 (ip), vehicle: saline with Tween-80) 95 % of control.
For the molecule `COc1ccc(-c2coc3cc(OC4OC(CO)C(O)C(O)C4O)cc(O)c3c2=O)cc1` (stereo unspecified), the T/C under setting [4] was 98 % of control, the T/C under setting [5] was 92 % of control and the T/C under setting [6] is 94 % of control.
The like results for `CN(C)C(=N)N(C)C` were, in that order, 100 % of control, 100 % of control and 95 % of control.
In the case of `COC(=O)C1=C(C)NC(C)=C(C(=O)OC)C(N2C(=O)CCC2=O)C1` (stereo unspecified), the T/C reads like this: under setting [1], 100 % of control; under setting [4], 91 % of control; under setting [5], 88 % of control; under setting [6], 88 % of control.
On to `Cc1cc2c(cc1C)C(=O)c1c(O)c3c(c(O)c1C2=O)C[C@@](O)(C(=O)CO)C[C@@H]3OC1CC(N)C(O)C(C)O1` (stereo partly specified), for which the T/C (dose: 0.39 mg/kg/injection, schedule: Q04DX003 (ip), vehicle: water) is 115 % of control; the T/C (dose: 0.78 mg/kg/injection, schedule: Q04DX003 (ip), vehicle: water) was 115 % of control; the T/C (dose: 1.56 mg/kg/injection, schedule: Q04DX003 (ip), vehicle: water) was 110 % of control; the T/C (dose: 3.13 mg/kg/injection, schedule: Q04DX003 (ip), vehicle: water) is 151 % of control and 157 % of control; the T/C (dose: 6.25 mg/kg/injection, schedule: Q04DX003 (ip), vehicle: water) is 190 % of control; the T/C (dose: 25.0 mg/kg/injection, schedule: Q04DX003 (ip), vehicle: water) was 100 % of control.
As for `N=C(N)c1ccc2cc(/C=C/c3cc4ccc(C(=N)N)cc4o3)oc2c1`, the T/C reads like this: (dose: 100.0 mg/kg/injection, schedule: Q04DX003 (ip), vehicle: suspension in saline) 112 % of control; (dose: 200.0 mg/kg/injection, schedule: Q04DX003 (ip), vehicle: suspension in saline) 120 % of control.
For the molecule `Nc1nc(SCc2ccccc2)c2ncn(CCCl)c2n1`, the T/C is, setting by setting: (dose: 0.78 mg/kg/injection, schedule: Q01DX009 (ip), vehicle: saline) 97 % of control; (dose: 1.56 mg/kg/injection, schedule: Q01DX009 (ip), vehicle: saline) 101 % of control; (dose: 3.12 mg/kg/injection, schedule: Q01DX009 (ip), vehicle: saline) 105 % of control; (dose: 6.25 mg/kg/injection, schedule: Q01DX009 (ip), vehicle: saline) 102 % of control and 95 % of control; (dose: 6.25 mg/kg/injection, schedule: Q01DX009 (ip), vehicle: suspension in saline) 103 % of control; under setting [7], 100 % of control. The T/C is 111 % of control under setting [2] and 94 % of control (dose: 50.0 mg/kg/injection, schedule: Q01DX009 (ip), vehicle: suspension in saline).
`CCN(CC)CC.[CH-]1CCCCC1.[CH-]1CCCCC1.[CH-]1CCCCC1.[Cl-].[N-]=C=NC(=O)NC1CCCCC1.[Sn+4]`: the T/C (dose: 1.5 mg/kg/injection, schedule: Q01DX005 (ip), vehicle: Klucel (hydroxypropylcellulose) (HPC)) was 92 % of control; the T/C (dose: 3.0 mg/kg/injection, schedule: Q01DX005 (ip), vehicle: Klucel (hydroxypropylcellulose) (HPC)) was 92 % of control; the T/C (dose: 6.0 mg/kg/injection, schedule: Q01DX005 (ip), vehicle: Klucel (hydroxypropylcellulose) (HPC)) is 102 % of control and 92 % of control.
For the molecule `C#CC1(O)CC(c2ccccc2)N(C)C(c2ccccc2)C1` (stereo unspecified), the T/C is, setting by setting: (dose: 12.5 mg/kg/injection, schedule: Q01DX005 (ip), vehicle: saline with Tween-80) 93 % of control; (dose: 25.0 mg/kg/injection, schedule: Q01DX005 (ip), vehicle: saline with Tween-80) 98 % of control; (dose: 50.0 mg/kg/injection, schedule: Q01DX005 (ip), vehicle: saline with Tween-80) 98 % of control and 87 % of control.
As to `Cc1ccc(S(=O)(=O)OI(C#CC(C)(C)C)c2ccccc2)cc1`, the T/C reads like this: (dose: 12.5 mg/kg/injection, schedule: Q01DX005 (ip), vehicle: Klucel (hydroxypropylcellulose) (HPC)) 102 % of control; (dose: 25.0 mg/kg/injection, schedule: Q01DX005 (ip), vehicle: Klucel (hydroxypropylcellulose) (HPC)) 102 % of control; (dose: 50.0 mg/kg/injection, schedule: Q01DX005 (ip), vehicle: Klucel (hydroxypropylcellulose) (HPC)) 101 % of control and 117 % of control.
With `CN=c1ccc2nc3ccc(N)cc3sc-2c1`, the T/C reads like this: (dose: 12.5 mg/kg/injection, schedule: Q01DX005 (ip), vehicle: saline) 105 % of control; (dose: 25.0 mg/kg/injection, schedule: Q01DX005 (ip), vehicle: saline) 107 % of control; (dose: 50.0 mg/kg/injection, schedule: Q01DX005 (ip), vehicle: saline) 103 % of control.
